Drawing on paper PMC10343464, “Identification and characterization of a novel aminoglycoside O-nucleotidyltransferase ANT(6)-If from Paenibacillus thiaminolyticus PATH554” (Frontiers in Microbiology, 2023), this text covers Km for one compound.

This test concerns T1, ANT(6)-If.
T1 construct: full-length ORF (855 bp, TTG start codon); 284 residues; His6 tag removed with thrombin; likely homodimer by clear-native PAGE
As to the kind of experiment: coupled UDP-glucose pyrophosphorylase / phosphoglucomutase / G6PDH assay, NADPH at […] nm. It is filed as biochemical, Paenibacillus thiaminolyticus. Particulars: 1 mM ATP, 10 mM MgCl2, 50 mM HEPES pH 7.5; temperature not given.

Regarding `CN[C@@H]1[C@H](O[C@H]2[C@H](O[C@H]3[C@H](O)[C@@H](O)[C@H](N=C(N)N)[C@@H](O)[C@@H]3N=C(N)N)O[C@@H](C)[C@]2(O)C=O)O[C@@H](CO)[C@H](O)[C@H]1O` [streptomycin], the Km turned out to be 12.4 µM.
